# Reference: BindingDB's records for patent US20250215017 (Medinno Pharmaceutical Technology (Zhuhai) Co., 2025)
# pIC50: −log10 of the molar value.
# Target: T1, TGF-beta receptor type-1 (Homo sapiens, UniProt P36897)
# T1 sequence (P36897 whole entry): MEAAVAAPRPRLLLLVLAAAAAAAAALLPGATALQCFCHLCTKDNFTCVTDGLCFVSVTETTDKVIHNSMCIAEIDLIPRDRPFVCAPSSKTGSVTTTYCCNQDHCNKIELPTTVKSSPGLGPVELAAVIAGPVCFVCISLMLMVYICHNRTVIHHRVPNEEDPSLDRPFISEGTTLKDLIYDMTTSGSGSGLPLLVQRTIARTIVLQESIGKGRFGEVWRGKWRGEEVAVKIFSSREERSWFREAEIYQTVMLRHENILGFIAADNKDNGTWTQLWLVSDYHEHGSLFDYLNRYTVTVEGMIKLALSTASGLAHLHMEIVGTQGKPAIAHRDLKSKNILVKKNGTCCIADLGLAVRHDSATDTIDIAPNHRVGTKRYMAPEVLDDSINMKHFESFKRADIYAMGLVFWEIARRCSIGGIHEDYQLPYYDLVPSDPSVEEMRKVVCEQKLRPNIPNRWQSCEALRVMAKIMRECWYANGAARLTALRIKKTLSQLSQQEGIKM
# Assay: ADP-Glo Kinase Assay
# Method: The principle of the activity assay was that TGFβR1 phosphorylates the substrate TGFβR1tide, consuming ATP in the process. […] The specific experimental steps were as follows. Compounds were diluted 4-fold in DMSO in a dilution plate, with the final starting concentration of the compounds being 10 μM, across 10 concentration gradient points. The compounds were then further diluted 50-fold into the kinase reaction buffer and incubated on a shaker for 20 minutes. Kinase was formulated with an enzyme reaction buffer. 2 μl kinase was added to each well of the reaction plate. 1 μl of the compound diluted in buffer was added to each well, and then the plate was sealed with a sealing membrane and centrifuged at 1000 g for 30 seconds, leaving it at room temperature for 10 minutes. Solutions of TGFβR1tide and ATP were prepared with the kinase reaction buffer, and 2 μL of the TGFβR1tide/ATP solution was added to the reaction plate. The plate was sealed with a sealing film and centrifuged at 1000 g for 30 seconds. It was allowed to react at room temperature for 60 minutes. Subsequently, 4 μL of ADP-Glo was transferred to a 384-well reaction plate and centrifuged at 1000 rpm/min for 1 minute, followed by incubation at 25° C. for 40 minutes. […] The RLU (Relative Luminescence Unit) signal was read using a BMG microplate reader, which was used to characterize the degree of kinase activity.
compound,measurement,value
"Cc1cccc(-c2n[nH]cc2-c2ccnc(-c3nc4c([nH]3)CN(C(=O)N3CCN(C)CC3)C4)c2)n1 [US20250215017, Compound 7]",pIC50,8.96
